Patent US20080287532A1, “OXACYCLOPENTENE-2 DERIVATIVES” (priority 2007, published 2008)
Like-named read-outs stand apart in the source and are kept apart here.

Assays:
[1] = test system: antibody production (AFC) after Adriamycin immunosuppression; assay: Adriamycin-induced immunosuppression model, antibody (AFC) response to SRBC; assay type: in vivo, mice
Description: (§1) For induction of a primary humoral PFC response, C57BL/6J mice were immunized intraperitoneally with 0.1 ml of a 5% suspension of SRBC, containing 1×10^8 cells. On day 5 after immunization animals were sacrificed under deep ether anesthesia, spleens were dissected out and minced through a stainless steel mesh. Individual spleen cell suspensions were washed three times with Hank's BSS, nucleated cells number was determined with a haemocytometer, viability was assessed by exclusion of trypan blue and adjusted to 1×10^7 viable cells per ml in Medium 199 containing Earle's salts and L-glutamine.
(§2) For the PFC assay, suspensions containing 1×10^6 spleen cells, 1×10^9 SRBCs and guinea pig serum (diluted 1:10, a source of complement), were introduced into a Cunningham chambers (100 μl volume) and incubated for 1 h at 37° C. The number of hemolytic plaques, produced by anti-SRBC IgM secreting plasma cells, was counted using a light microscope, and the number of PFC determined for each mice was expressed per 1×10^6 spleen cells and per whole spleen.
Immunosupression in mice was induced by parentreral administration of Adriamycin or Cyclophosphamide. Mice were injected with Adriamycin intraperitoneally in a dose of 5 mg/kg one day before the immunization with SRBC. Cyclophosphamide was used in a dose of 100 mg/kg 24 hours before the antigen challenge with SRBC.
Even in this extreme situation, administration of 2-methyl-3-ethoxycarbonyl-4-(2-methoxyphenyl)-5-methoxy-(1-oxacyclopentene-2, example 6) in dose 2.5 mg/kg produces a nearly 3 folds increase in antibody levels. […] (See FIG. 8).

[2] = test system: anti-SRBC IgM secreting plasma cells (antibody-forming cells, AFC); assay type: in vivo; settings: for AFC number increase, % of control: mice immunized with SRBC
From the text: Humoral-mediated immune response is routinely measured using the antibody-forming cell (AFC) assay. Primarily used for evaluating humoral immunity, this assay, in fact, evaluates overall immune competence including T- and B-cell function, antigen processing and presentation. Sheep Red Blood Cells (SRBC) are the most common T-dependent antigen used for this assay.
Primary IgM response after SRBC administration was quantitatively estimated using a modified hemolytic plaque-forming cell assay
Since SRBC are T-dependent antigen, a normal AFC response depends on multiple factors: antigen processing and presentation actuated by macrophages, appropriate T-cell signalling, B-cells differentiation, and affinity maturation of antibodies in plasma cells.
as §1, §2

[3] = test system: cellular immune response (T-cells response) to SRBC; assay: Delayed Type Hypersensitivity test (DTH), foot pad edema after SRBC challenge; assay type: in vivo, mice
Description: The method of Lagrange et al. was used. Mice were sensitized intravenously (iv) with 10^5 SRBC in saline. After 4 days, the mice were given eliciting dose of the antigen: 10^8 SRBS in 20 mcl of sterile saline into right hind paw, left hind paw was injected with 20 mcl of sterile saline. In 24 hours after challenge, the foot pad edema volume was measured using a caliper. The difference in volume (mcl) between the right paw (antigen-injected) and left paw (saline-injected) is calculated (Δ) and used as edema volume.

[4] = Administered dose related to LD50; assay type: in vivo; settings: Levamisol dose 2.5 mg/kg
[5] = dose 10 mg/kg, mice sensitized with SRBC

SMILES | AFC number increase, % of control ([2]; dose 2.5 mg/kg) | AFC number increase, % of control ([2]; dose 5 mg/kg) | AFC number increase, % of control ([2]; dose 10 mg/kg) | DTH foot pad edema, % of control [3, 5] | also measured
COc1cccc2c1C(=O)c1c(O)c3c(c(O)c1C2=O)C[C@@](O)(C(=O)CO)C[C@@H]3O[C@H]1C[C@H](N)[C@H](O)[C@H](C)O1 [Adriamycin] |  |  |  |  | Total number of AFC, % of initial values ([1]; after Adriamycin administration (5 mg/kg i.p.)): 1-2%
CCOC(=O)C1=C(C)OC(OC)C1CC(C)C (stereo not shown) [Example 1] | 209% | 275% | 453% | 300% | 
CCCCCC1C(C(=O)OCC)=C(C)OC1OC (stereo not shown) [Example 2] | 360% | 331% | 330% | 220% | 
CCCCCCCCCC1C(C(=O)OCC)=C(C)OC1OC (stereo not shown) [Example 3] | 225% | 289% | 326% | 250% | 
CCCCCCCCCCCC1C(C(=O)OCC)=C(C)OC1OC (stereo not shown) [Example 4] | 253% | 330% | 282% | 240% | 
CCOC(=O)C1=C(C)OC(OC)C1c1ccccc1 (stereo not shown) [Example 5] | 202% | 324% | 259% | 200% | 
CCOC(=O)C1=C(C)OC(OC)C1c1ccccc1OC (stereo not shown) [Example 6] | 260% | 229% | 440% | 190% | Increase in antibody levels ([1]; dose 2.5 mg/kg, Adriamycin 5 mg/kg i.p. one day before SRBC immunization): ~3 folds
CCOC(=O)C1=C(C)OC(OC)C1c1ccc(Cl)cc1Cl (stereo not shown) [Example 7] | 269% | 302% | 358% | 230% | 
CCOC(=O)C1=C(C(Br)Br)OC(OC)C1c1ccccc1 (stereo not shown) [Example 8] | 188% | 276% | 271% | 260% | 
COC1OC(C)=C(C(=O)O)C1CC(C)C (stereo not shown) [Example 9] | 230% | 320% | 360% | 360% | 
COC1OC(C)=C(C(=O)[O-])C1CC(C)C.[Li+] (stereo not shown) [Example 10] | 290% | 320% | 470% | 360% | 
CCCCCCC1C(C(=O)OCC)=C(C)OC1OC (stereo not shown) [Example 11] | 245% | 241% | 287% | 210% | 
CCCCC1C(C(=O)OCC)=C(C)OC1OC (stereo not shown) [Example 12] | 251% | 239% | 291% | 230% | 
CCOC(=O)C1=C(C)OC(OC)C1c1cccnc1 (stereo not shown) [Example 13] | 168% | 201% | 191% | 180% | 
CCOC(=O)C1=C(C)OC(OC)C1c1cccc(OC)c1 (stereo not shown) [Example 14] | 135% | 187% | 254% | 200% | 
CCOC(=O)C1=C(C)OC(OC)C1c1ccc(OC)cc1 (stereo not shown) [Example 15] | 291% | 312% | 267% | 160% | 
CCOC(=O)C1=C(CC)OC(OC)C1c1ccc(C)cc1C (stereo not shown) [Example 16] | 165% | 192% | 217% | 140% | 
c1ccc([C@H]2CN3CCSC3=N2)cc1 [Levamisol, reference compound] | 121% |  |  |  | Administered dose as % of LD50 [4]: 10 % of LD50; Increase in antibody formation ([2]; Levamisol positive reference, dose 2.5 mg/kg): 20%; Toxic effects (AFC not determined at higher doses) ([2]; mouse, in vivo): ND (toxic effects); Antibody response in Adriamycin immunosuppression model ([1]; Adriamycin-induced immunosuppression): no antibody response; DTH foot pad edema, % of control ([3]; Levamisol positive control, dose 2.5 mg/kg): 240%; Cellular immune response increase ([3]; after Levamisol administration): 240%
